In PubChem BioAssay (NCI) one finds TGI and GI50 data, which are given here for 8 compounds.

Test systems include PC-3 prostate; RXF 393 renal; NCI-H23 lung; CCRF-CEM leukemia; OVCAR-4 ovarian; KM12 colon; UACC-62 melanoma; SN12C renal; K-562 leukemia; HOP-92 NSCLC; SF-295 CNS; COLO 205 colon; BT-549 breast; U251 CNS; T-47D breast; SK-MEL-2 melanoma; MALME-3M melanoma; RPMI-8226 leukemia.
Test in all cases: inhibition of tumour cell growth, NCI panel, 48 h

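Briefly, cells in 96-well plates were exposed to five compound concentrations for 48 h, and endpoints were estimated by linear interpolation. Here, GI50 denotes the concentration required for 50% inhibition of growth. TGI denotes the concentration required for complete inhibition of growth.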 Where a SMILES comes first, the peptide text is derived from it. The star is where a group is joined. Boc = CC(C)(C)OC(=O)*; OBn = c1ccc(CO*)cc1

Regarding `COc1cc(/C=C2\C(=O)N(Cc3ccccc3)C(c3ccccc3)S2(=O)=O)cc(OC)c1OC` (configuration not stated), the TGI with PC-3 prostate, with RXF 393 renal, in the assay with NCI-H23 lung, in the assay with CCRF-CEM leukemia, in the assay with OVCAR-4 ovarian and with KM12 colon was greater than 100 µM each time. Besides, the TGI in the assay on UACC-62 melanoma is greater than 100 µM; in the assay with SN12C renal, greater than 100 µM; in the assay on K-562 leukemia, greater than 100 µM; in the assay with HOP-92 NSCLC it was greater than 100 µM; with SF-295 CNS, greater than 100 µM; in the assay on COLO 205 colon, 94 µM. In addition, the TGI in the assay with BT-549 breast, with U251 CNS, in the assay with T-47D breast, in the assay with SK-MEL-2 melanoma and in the assay on MALME-3M melanoma was greater than 100 µM throughout.

On to `COc1cccc2c1C(=O)c1ccc3cc(CCl)cc(O)c3c1C2=O`, for which the TGI came out at 0.973 µM with PC-3 prostate; 0.756 µM in the assay with RXF 393 renal; 1.27 µM with NCI-H23 lung; 1.98 µM in the assay on CCRF-CEM leukemia; 0.339 µM with KM12 colon; 0.687 µM with UACC-62 melanoma. The TGI in the assay with RPMI-8226 leukemia was found to be 1.37 µM; in the assay with SN12C renal, 0.334 µM; with K-562 leukemia it was 2.49 µM; in the assay with HOP-92 NSCLC, 1.73 µM; in the assay with SF-295 CNS it was 2.23 µM; with COLO 205 colon, 0.467 µM. Also, the TGI in the assay on BT-549 breast was determined as 1.39 µM; in the assay with U251 CNS, 1.67 µM; in the assay with T-47D breast, 1.73 µM; with SK-MEL-2 melanoma it was 1.1 µM; in the assay with MALME-3M melanoma, 0.515 µM.

As for `c1ccc2c(c1)nc1n2C2CCC(C2)N1` (configuration not stated), the TGI with PC-3 prostate, with RXF 393 renal, in the assay with NCI-H23 lung, with CCRF-CEM leukemia, with OVCAR-4 ovarian and with UACC-62 melanoma was greater than 10 µM throughout. The TGI with RPMI-8226 leukemia, in the assay with SN12C renal, in the assay with K-562 leukemia, in the assay on HOP-92 NSCLC, in the assay with SF-295 CNS and in the assay on COLO 205 colon was greater than 10 µM throughout. Also, the TGI in the assay with BT-549 breast, in the assay on U251 CNS, with T-47D breast, with SK-MEL-2 melanoma and in the assay with MALME-3M melanoma was greater than 10 µM each time.

As for `COC(C)(C)CCc1[nH]c2ccccc2c1CC(=O)NCCc1cncn1C`, the TGI with PC-3 prostate, with RXF 393 renal, with NCI-H23 lung, in the assay with CCRF-CEM leukemia, in the assay on OVCAR-4 ovarian and with KM12 colon was greater than 100 µM throughout. Also, the TGI in the assay on UACC-62 melanoma, in the assay on RPMI-8226 leukemia, in the assay with SN12C renal, in the assay on K-562 leukemia, in the assay on HOP-92 NSCLC and with COLO 205 colon was greater than 100 µM throughout. Further, the TGI with BT-549 breast, in the assay with U251 CNS, in the assay with T-47D breast, with SK-MEL-2 melanoma and in the assay on MALME-3M melanoma was greater than 100 µM each time.

Turning to `CC(NC(=O)C(Cc1ccccc1)NC(=O)C(Cc1ccccc1)NC(=O)OC(C)(C)C)C(=O)OCc1ccccc1` (stereo not drawn) (Boc-Phe-Phe-Ala-OBn; configuration not given here), the TGI in the assay with PC-3 prostate, in the assay on RXF 393 renal, in the assay with NCI-H23 lung, in the assay with CCRF-CEM leukemia, in the assay on KM12 colon and with UACC-62 melanoma was greater than 100 µM throughout. Further, the TGI in the assay with RPMI-8226 leukemia is greater than 100 µM; in the assay with SN12C renal it was greater than 100 µM; with K-562 leukemia, greater than 100 µM; with HOP-92 NSCLC, 81.2 µM; in the assay on SF-295 CNS, greater than 100 µM; in the assay on COLO 205 colon, greater than 100 µM. Further, the TGI in the assay with BT-549 breast, in the assay with U251 CNS, in the assay with T-47D breast, in the assay with SK-MEL-2 melanoma and with MALME-3M melanoma was greater than 100 µM in each case.

As for `CC(C)C/C=C/C1=NN(c2cccc(S(=O)(=O)O)c2)C2(C1)SCC(=O)N2c1nc2ccccc2s1` (configuration not stated), the TGI is greater than 100 µM in the assay with PC-3 prostate; greater than 100 µM with RXF 393 renal; greater than 100 µM in the assay on NCI-H23 lung; 64.4 µM in the assay on CCRF-CEM leukemia; greater than 100 µM with OVCAR-4 ovarian; greater than 100 µM in the assay with KM12 colon. For the same compound, the TGI is greater than 100 µM in the assay on UACC-62 melanoma; 49.6 µM in the assay with RPMI-8226 leukemia; greater than 100 µM in the assay on SN12C renal; greater than 100 µM with K-562 leukemia; greater than 100 µM in the assay on HOP-92 NSCLC; greater than 100 µM with COLO 205 colon. For the same compound, the TGI is greater than 100 µM with BT-549 breast; greater than 100 µM in the assay with U251 CNS; 47.2 µM in the assay with T-47D breast; greater than 100 µM in the assay with SK-MEL-2 melanoma; greater than 100 µM in the assay on MALME-3M melanoma.

In the case of `CCOc1cc2c(cc1OC(C)=O)C(=O)CC[C@H]1C3CC[C@H](OC(C)=O)[C@@]3(C)CC[C@H]21` (some centres not stated), the TGI in the assay on PC-3 prostate, in the assay with RXF 393 renal, in the assay on NCI-H23 lung, with CCRF-CEM leukemia, in the assay with OVCAR-4 ovarian and in the assay with KM12 colon was greater than 100 µM in each case. Further, the TGI in the assay on UACC-62 melanoma, in the assay on RPMI-8226 leukemia, with K-562 leukemia, in the assay with HOP-92 NSCLC, in the assay on SF-295 CNS and with COLO 205 colon was greater than 100 µM each time. Also, the TGI with BT-549 breast, in the assay on U251 CNS, in the assay with T-47D breast, in the assay on SK-MEL-2 melanoma and in the assay on MALME-3M melanoma was greater than 100 µM each time.

As to `CCOc1cc2c(cc1O)/C(=N/NS(=O)(=O)c1ccc(C)cc1)C[C@@H]1[C@@H]2CC[C@]2(C)[C@@H](O)CC[C@@H]12`, the TGI in the assay with PC-3 prostate, in the assay with RXF 393 renal, in the assay with NCI-H23 lung, in the assay on CCRF-CEM leukemia, in the assay with OVCAR-4 ovarian and in the assay on KM12 colon was greater than 100 µM in each case. For the same compound, the TGI with RPMI-8226 leukemia is 16 µM; in the assay on SN12C renal, greater than 100 µM; in the assay with K-562 leukemia, greater than 100 µM; with HOP-92 NSCLC, greater than 100 µM; in the assay with SF-295 CNS, greater than 100 µM; in the assay with COLO 205 colon it was 17.4 µM. Moreover, the TGI in the assay on BT-549 breast, with U251 CNS, in the assay on T-47D breast, in the assay with SK-MEL-2 melanoma and in the assay on MALME-3M melanoma was greater than 100 µM each time. In addition, in the assay with SN12C renal, the GI50 was 12.1 µM.
